Patent publication EP4707277A1, “NOVEL HETEROCYCLIC AMINE DERIVATIVES AND PHARMACEUTICAL COMPOSITION COMPRISING SAME” (Daewoong Pharmaceutical Co., Ltd., priority 2023, dated 2024)
Read-outs that look alike come from different tables or passages of the source.

Experiments:
BTK = target: T1, BTK (Homo sapiens, UniProt Q06187); assay: Inhibitory activity against BTK, ADP-Glo Kinase system (Promega); assay type: biochemical
T1 construct: purchased Signalchem B10-10H
Method in brief: (§1)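 IC50 values were fitted from kinase reactions run for 1 h at 30°C with either 1 mM ATP or ATP at Km (10 µM for BTK, 25 µM for ITK). Reactions used 0.2 µg/µl poly(Glu4,Tyr1), recombinant human enzyme (BTK 10 ng, ITK 4 ng per reaction) in Tris pH 7.5 Mn/Mg buffer with 1% DMSO. ADP formed was read by ADP-Glo luminescence.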

ITK = target: T2, ITK (Homo sapiens, UniProt Q08881); assay: Inhibitory activity against ITK, ADP-Glo Kinase system (Promega); assay type: biochemical
T2 construct: purchased Signalchem I13-11G-10
T2 sequence (Q08881 1-620): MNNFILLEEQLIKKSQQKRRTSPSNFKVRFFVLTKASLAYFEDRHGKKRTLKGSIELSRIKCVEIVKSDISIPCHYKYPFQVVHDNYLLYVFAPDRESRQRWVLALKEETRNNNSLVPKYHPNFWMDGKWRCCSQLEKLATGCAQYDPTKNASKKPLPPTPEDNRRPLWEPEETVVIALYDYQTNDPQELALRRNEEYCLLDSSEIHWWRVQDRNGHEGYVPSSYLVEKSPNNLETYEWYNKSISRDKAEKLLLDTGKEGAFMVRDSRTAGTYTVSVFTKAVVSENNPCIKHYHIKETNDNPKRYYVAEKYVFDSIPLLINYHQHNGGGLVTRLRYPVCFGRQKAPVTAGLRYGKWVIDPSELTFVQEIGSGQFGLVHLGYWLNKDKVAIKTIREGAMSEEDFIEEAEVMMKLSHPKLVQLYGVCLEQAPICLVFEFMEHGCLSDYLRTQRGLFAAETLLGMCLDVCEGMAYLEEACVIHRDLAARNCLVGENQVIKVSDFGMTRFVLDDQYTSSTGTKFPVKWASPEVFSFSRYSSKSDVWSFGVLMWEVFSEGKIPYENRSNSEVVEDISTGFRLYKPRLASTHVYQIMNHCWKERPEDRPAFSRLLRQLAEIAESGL
Method in brief: as §1

[1] = 1mM ATP, read-out: BTK IC50(nM) 1mM ATP
[2] = 1mM ATP, read-out: ITK IC50(nM) 1mM ATP
[3] = Km ATP (BTK: 10 uM), read-out: BTK IC50(nM) Km ATP
[4] = Km ATP (ITK: 25uM), read-out: ITK IC50(nM) Km ATP

T1 sequence (Q06187 whole entry): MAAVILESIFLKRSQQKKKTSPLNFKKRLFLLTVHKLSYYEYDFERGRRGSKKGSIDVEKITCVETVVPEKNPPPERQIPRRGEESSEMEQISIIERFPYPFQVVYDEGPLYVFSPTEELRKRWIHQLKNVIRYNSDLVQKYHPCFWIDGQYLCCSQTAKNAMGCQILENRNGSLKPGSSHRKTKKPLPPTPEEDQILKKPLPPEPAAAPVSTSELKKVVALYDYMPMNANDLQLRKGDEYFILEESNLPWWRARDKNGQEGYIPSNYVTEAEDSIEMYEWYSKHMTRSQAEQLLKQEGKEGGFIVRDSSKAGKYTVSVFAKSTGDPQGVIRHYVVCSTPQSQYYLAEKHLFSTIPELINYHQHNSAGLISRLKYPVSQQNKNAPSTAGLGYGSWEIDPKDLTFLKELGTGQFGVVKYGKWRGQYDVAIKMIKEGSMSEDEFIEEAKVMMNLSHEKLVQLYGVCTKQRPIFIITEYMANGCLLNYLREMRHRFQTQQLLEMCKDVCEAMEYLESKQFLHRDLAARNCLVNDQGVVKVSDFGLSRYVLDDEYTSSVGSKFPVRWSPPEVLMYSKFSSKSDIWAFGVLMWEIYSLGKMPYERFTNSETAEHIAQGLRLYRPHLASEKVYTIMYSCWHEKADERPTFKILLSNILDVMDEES

Structure (SMILES) | IC50 (BTK; [1]) | IC50 (ITK; [2]) | IC50 (BTK; [3]) | IC50 (ITK; [4])
C=CC(=O)Nc1cc(-c2nc(Nc3ncc(C)s3)cc3c2ccn3CC(F)(F)F)c(F)cc1F [Example 77, N-(2,4-difluoro-5-(6-((5-methylthiazol-2-yl)amino)-1-(2,2,2-trifluoroethyl)-1H-pyrrolo[3,2-c]pyridin-4-yl)phenyl)acrylamide] | ≤ 20 nM | 20 to 100 nM | – | –
C=CC(=O)N1CCC12CC(Oc1nc(Nc3ncc(C)s3)cc3c1ccn3CC(C)C)C2 (centres unmarked) [Example 137, 1-(6-((1-isobutyl-6-((5-methylthiazol-2-yl)amino)-1H-pyrrolo[3,2-c]pyridin-4-yl)oxy)-1-azaspiro[3.3]heptan-1-yl)prop-2-en-1-one] | ≤ 20 nM | ≤ 20 nM | – | –
C=CC(=O)N1CC=C(c2nc(Nc3ncc(C)s3)cc3c2ccn3[C@H](C)C(F)(F)F)CC1 [Example 24, (R)-1-(4-(6-((5-methylthiazol-2-yl)amino)-1-(1,1,1-trifluoropropan-2-yl)-1H-pyrrolo[3,2-c]pyridin-4-yl)-3,6-dihydropyridin-1(2H)-yl)prop-2-en-1-one] | ≤ 20 nM | 20 to 100 nM | – | –
C=CC(=O)N1C[C@H](F)[C@H](Oc2nc(Nc3ncc(C)s3)cc3c2ccn3CC(C)C)C1 [Example 105, 1-((3S,4R)-3-fluoro-4-((1-isobutyl-6-((5-methylthiazol-2-yl)amino)-1H-pyrrolo[3,2-c]pyridin-4-yl)oxy)pyrrolidin-1-yl)prop-2-en-1-one] | ≤ 20 nM | ≤ 20 nM | – | –
C=CC(=O)N1C[C@H](F)[C@H](Oc2nc(Nc3ncc(C)s3)cc3c2ccn3CCF)C1 [Example 189, 1-((3S,4R)-3-fluoro-4-((1-(2-fluoroethyl)-6-((5-methylthiazol-2-yl)amino)-1H-pyrrolo[3,2-c]pyridin-4-yl)oxy)pyrrolidin-1-yl)prop-2-en-1-one] | ≤ 20 nM | ≤ 20 nM | – | –
C=CC(=O)Nc1ccc(F)c(-c2nc(Nc3ncc(C)s3)cc3c2ccn3CC(F)(F)F)c1 [Example 78, N-(4-fluoro-3-(6-((5-methylthiazol-2-yl)amino)-1-(2,2,2-trifluoroethyl)-1H-pyrrolo[3,2-c]pyridin-4-yl)phenyl)acrylamide] | ≤ 20 nM | 20 to 100 nM | – | –
C=CC(=O)N1CC[C@H](Oc2nc(Nc3ncc(C)s3)cc3c2ccn3C(C)C)C1 [Example 79, (S)-1-(3-((1-isopropyl-6-((5-methylthiazol-2-yl)amino)-1H-pyrrolo[3,2-c]pyridin-4-yl)oxy)pyrrolidin-1-yl)prop-2-en-1-one] | ≤ 20 nM | ≤ 20 nM | ≤ 20 nM | ≤ 20 nM
C=CC(=O)N1C2C=C(c3nc(Nc4ncc(C)s4)cc4c3ccn4CC3(C(F)(F)F)CC3)CC1CC2 (centres unmarked) [Example 30, 1-(3-(6-((5-methylthiazol-2-yl)amino)-1-((1-(trifluoromethyl)cyclopropyl)methyl)-1H-pyrrolo[3,2-c]pyridin-4-yl)-8-azabicyclo[3.2.1]oct-2-en-8-yl)prop-2-en-1-one] | ≤ 20 nM | ≤ 20 nM | – | –
C=CC(=O)N1CCC[C@H](Oc2nc(Nc3ncc(C)s3)cc3c2ccn3CC2CCCC2)C1 [Example 169, (S)-1-(3-((1-(cyclopentylmethyl)-6-((5-methylthiazol-2-yl)amino)-1H-pyrrolo[3,2-c]pyridin-4-yl)oxy)piperidin-1-yl)prop-2-en-1-one] | ≤ 20 nM | 20 to 100 nM | – | –
C=CC(=O)Nc1cc(-c2nc(Nc3ncc(C)s3)cc3c2ccn3CCC(C)(C)C)c(F)cc1F [Example 69, N-(5-(1-(3,3-dimethylbutyl)-6-((5-methylthiazol-2-yl)amino)-1H-pyrrolo[3,2-c]pyridin-4-yl)-2,4-difluorophenyl)acrylamide] | 100 to 500 nM | 20 to 100 nM | – | –
C=CC(=O)N1C[C@H](F)[C@H](Oc2nc(Nc3ncc(C)s3)cc3c2ccn3CC(F)(F)F)C1 [Example 211, 1-((3S,4R)-3-fluoro-4-((6-((5-methylthiazol-2-yl)amino)-1-(2,2,2-trifluoroethyl)-1H-pyrrolo[3,2-c]pyridin-4-yl)oxy)pyrrolidin-1-yl)prop-2-en-1-one] | ≤ 20 nM | ≤ 20 nM | – | –
C=CC(=O)N1C[C@H](F)[C@H](Oc2nc(Nc3ncc(C)s3)cc3c2ccn3CCOC)C1 [Example 147, 1-((3S,4R)-3-fluoro-4-((1-(2-methoxyethyl)-6-((5-methylthiazol-2-yl)amino)-1H-pyrrolo[3,2-c]pyridin-4-yl)oxy)pyrrolidin-1-yl)prop-2-en-1-one] | ≤ 20 nM | ≤ 20 nM | – | –
C=CC(=O)N1CC[C@H](Oc2nc(Nc3ncc(C)s3)cc3c2ccn3CC2CCOCC2)C1 [Example 133, (S)-1-(3-((6-((5-methylthiazol-2-yl)amino)-1-((tetrahydro-2H-pyran-4-yl)methyl)-1H-pyrrolo[3,2-c]pyridin-4-yl)oxy)pyrrolidin-1-yl)prop-2-en-1-one] | ≤ 20 nM | ≤ 20 nM | – | –
C=CC(=O)N1C[C@@H](F)[C@H](Oc2nc(Nc3ncc(C)s3)cc3c2ccn3C)C1 [Example 157, 1-((3R,4R)-3-fluoro-4-((1-methyl-6-((5-methylthiazol-2-yl)amino)-1H-pyrrolo[3,2-c]pyridin-4-yl)oxy)pyrrolidin-1-yl)prop-2-en-1-one] | ≤ 20 nM | ≤ 20 nM | – | –

Other lines, results leading:

IC50 (BTK; [1]) | IC50 (ITK; [2]) | IC50 (BTK; [3]) | IC50 (ITK; [4]) | Structure (SMILES)
≤ 20 nM | 20 to 100 nM | – | – | C=CC(=O)N1CCCC1COc1nc(Nc2ncc(C)s2)cc2c1ccn2C1CCCC1 (centres unmarked) [Example 217, 1-(2-(((1-cyclopentyl-6-((5-methylthiazol-2-yl)amino)-1H-pyrrolo[3,2-c]pyridin-4-yl)oxy)methyl)pyrrolidin-1-yl)prop-2-en-1-one]
20 to 100 nM | 100 to 500 nM | – | – | C=CC(=O)N1CCCC12CC(Oc1nc(Nc3ncc(C)s3)cc3c1ccn3CC(C)C)C2 (centres unmarked) [Example 200, 1-(2-((1-isobutyl-6-((5-methylthiazol-2-yl)amino)-1H-pyrrolo[3,2-c]pyridin-4-yl)oxy)-5-azaspiro[3.4]octan-5-yl)prop-2-en-1-one]
– | – | > 500 nM | > 500 nM | C=CC(=O)N1CC=C(c2nc(Nc3nc(C)cs3)cc3c2ccn3C(C)C)CC1 [Example 42, 1-(4-(1-isopropyl-6-((4-methylthiazol-2-yl)amino)-1H-pyrrolo[3,2-c]pyridin-4-yl)-3,6-dihydropyridin-1(2H)-yl)prop-2-en-1-one]
≤ 20 nM | ≤ 20 nM | – | – | C=CC(=O)N1CC[C@H](Oc2nc(Nc3ncc(C)s3)cc3c2ccn3CC(C)(C)O)C1 [Example 140, (S)-1-(3-((1-(2-hydroxy-2-methylpropyl)-6-((5-methylthiazol-2-yl)amino)-1H-pyrrolo[3,2-c]pyridin-4-yl)oxy)pyrrolidin-1-yl)prop-2-en-1-one]
– | – | ≤ 20 nM | ≤ 20 nM | C=CC(=O)Nc1cccc(-c2nc(Nc3ncc(C)s3)cc3c2ccn3CC2CCOCC2)c1F [Example 73, N-(2-fluoro-3-(6-((5-methylthiazol-2-yl)amino)-1-((tetrahydro-2H-pyran-4-yl)methyl)-1H-pyrrolo[3,2-c]pyridin-4-yl)phenyl)acrylamide]
≤ 20 nM | 20 to 100 nM | – | – | C=CC(=O)N1CC[C@H](Oc2nc(Nc3cc(OC)ncn3)cc3c2ccn3C(C)C)C1 [Example 103, (S)-1-(3-((1-isopropyl-6-((6-methoxypyrimidin-4-yl)amino)-1H-pyrrolo[3,2-c]pyridin-4-yl)oxy)pyrrolidin-1-yl)prop-2-en-1-one]
20 to 100 nM | 100 to 500 nM | – | – | C=CC(=O)N1C[C@H](F)[C@H](Oc2nc(Nc3cc[nH]n3)cc3c2ccn3CC(C)C)C1 [Example 195, 1-((3R,4S)-3-((6-((1H-pyrazol-3-yl)amino)-1-isobutyl-1H-pyrrolo[3,2-c]pyridin-4-yl)oxy)-4-fluoropyrrolidin-1-yl)prop-2-en-1-one]
≤ 20 nM | ≤ 20 nM | – | – | C=CC(=O)N1CC[C@H](Oc2nc(Nc3ncc(C)s3)cc3c2ccn3CCF)C1 [Example 188, (S)-1-(3-((1-(2-fluoroethyl)-6-((5-methylthiazol-2-yl)amino)-1H-pyrrolo[3,2-c]pyridin-4-yl)oxy)pyrrolidin-1-yl)prop-2-en-1-one]
– | – | ≤ 20 nM | ≤ 20 nM | C=CC(=O)N1C[C@@H](F)[C@H](Oc2nc(Nc3ncc(C)s3)cc3c2ccn3CC2(C(F)(F)F)CC2)C1 [Example 120, 1-((3R,4R)-3-fluoro-4-((6-((5-methylthiazol-2-yl)amino)-1-((1-(trifluoromethyl)cyclopropyl)methyl)-1H-pyrrolo[3,2-c]pyridin-4-yl)oxy)pyrrolidin-1-yl)prop-2-en-1-one]
– | – | 20 to 100 nM | > 500 nM | C=CC(=O)N1CC=C(c2nc(Nc3nnc(C)s3)cc3c2ccn3C(C)C)CC1 [Example 41, 1-(4-(1-isopropyl-6-((5-methyl-1,3,4-thiadiazol-2-yl)amino)-1H-pyrrolo[3,2-c]pyridin-4-yl)-3,6-dihydropyridin-1(2H)-yl)prop-2-en-1-one]
